According to US12215090B2, “Agents and methods for treating dysproliferative diseases” (Memorial Sloan-kettering Cancer Center, priority 2018, dated 2025):
Where two headings read alike, the source gives them in different places.

How the values were obtained:
Format in all cases: cell-based
[1] = test system: MRC-5 (human lung fibroblast); experiment: cell viability assay, MRC-5 normal cells; settings: MRC5, MRC-5 non-cancer cells, 72 hours of exposure, cell titer glow reagent
Experimental: (§1) The biological activity of compounds of the invention was evaluated in several assays. In a cell viability assay using cancer and normal cells lines MOLT-4 (human acute lymphoblastic leukemia [ALL]) and MRC-5 (human lung fibroblast), respectively, cell viability was assessed after 72 hours of exposure to a range of concentrations, using cell titer glow reagent from Promega to assess viability.

[2] = test system: KOPTK1 cells, a murine T-cell ALL cell line; experiment: cell viability assay, KOPTK1 cells; settings: Mus musculus
[3] = test system: MOLT-4 (human acute lymphoblastic leukemia [ALL]); experiment: cell viability assay, MOLT-4 cancer cells; settings: MOLT-4 T-ALL cells, 72 hours of exposure, cell titer glow reagent
Experimental: as §1

[4] = test system: DoHH2 cells; experiment: cell viability assay, DoHH2 cells
Source text: (§2) FIGS. 1A, 1B, 1C, and 1D show the activity of compounds of the invention, compared to (−)-CR31B and (+)-CR31B in cell viability assays using (A) DHL6 cells, (B) Jurkat cells, (C) DoHH2 cells, and (D) LY8 cells. […] The following table reports the IC50s (in nM) for each lymphoma and leukemia cell type.

[5] = test system: DHL6 cells; experiment: cell viability assay, DHL6 cells
Source text: as §2

[6] = test system: LY8 cells; experiment: cell viability assay, LY8 cells
Source text: as §2

[7] = test system: Jurkat cells; experiment: cell viability assay, Jurkat cells
Source text: as §2

[8] = test system: DHL8 cells; experiment: cell viability assay, DHL8 cells
Source text: as §2

Compound	IC50 [1] [nM]	IC50 [2] [nM]	IC50 [3] [nM]	IC50 ([4]; Homo sapiens, DOHH-2) [nM]	IC50 [5] [nM]	IC50 [6] [nM]	IC50 ([7]; Homo sapiens) [nM]	IC50 [8] [nM]	IC50 [4] [nM]	IC50 [7] [nM]
CONC(=O)[C@H]1[C@@H](O)[C@@]2(O)c3c(OC)cc(OC)cc3O[C@@]2(c2ccc(O)cc2)[C@@H]1c1ccccc1 [Compound 1, (1R,2R,3S,3aR,8bS)-1,8b-dihydroxy-3a-(4-hydroxyphenyl)-N,6,8-trimethoxy-3-phenyl-2,3-dihydro-1Hcyclopenta[b]benzofuran-2-carboxamide]	> 1000	50	5.3	36.7	51.5	38.9	63	74.9	–	–
COc1cc(OC)c2c(c1)OC1(c3ccc(O)cc3)C(c3ccccc3)C(C(N)=O)C(O)C21O (racemic) [Racemic mixture of Compounds 8 and 9, 1,8b-dihydroxy-3a-(4-hydroxyphenyl)-6,8-dimethoxy-3-phenyl-2,3-dihydro-1H-cyclopenta[b]benzofuran-2-carboxamide]	–	10	–	987	947	2910	1730	1040	–	–
(+)-CR31B [reference compound]	–	–	–	–	~4300	16500	–	7480	2530	~3110
(−)-CR31B [reference compound]	–	–	–	–	7.62	5.93	–	7.21	7.3	6.42
